Source: patent US8129340B2, “Inhibitors of protein phosphatase 1, GADD34 and protein phosphatase 1/GADD34 complex, preparation and uses thereof” (Institut Gustave Roussy, priority 2006, dated 2012)

Legend:
CT26 tumour cells [1] = assay: Anti-tumour vaccination: dying treated CT26 cells injected in one flank, later challenge with live tumour cells; assay type: in vivo, BALB/c mice; conditions: dying CT26 cells treated with agent injected into one flank, live tumour cells in opposite flank 8 days later
CT26 cells = assay: Phagocytosis of CT26 tumour cells by dendritic cells (FACS, double positive cells); assay type: cell-based, BALB/c mice; conditions: for phagocytosis of drug-treated tumour cells by DC: within a few hours after treatment
Description: FIG. 3A, FIG. 3B: Correlation between tumour cell phagocytosis and CRT exposure. Tumour cells labelled with Cell Tracker Green were cultured with CD11c-expressing DC and the percentage of DC taking up tumour cells was determined (A) and correlated with the CRT surface exposure (B), measured as in FIG. 2E.
Mitoxantrone-treated or control cells were incubated with a blocking chicken anti-CRT antibody, followed by detection of phagocytosis by CD.
Cells were transfected with the indicated siRNAs and optionally treated with rCRT, followed by immunoblot (FIG. 3D) detection of surface CRT (FIG. 3E) and phagocytosis by DC (FIG. 3F). Results are triplicates (X±SD) and representative of three independent experiments. * denotes statistically significant differences using the Student t′ test at p<0.001.
BM cells were flushed from the tibias and femurs of BALB/c mice with culture medium composed of RPMI 1640 medium (Invitrogen Life Technologies) supplemented with 10% heat-inactivated FBS (Invitrogen), sodium pyruvate, 50 μM 2-ME (Sigma), 10 mM HEPES (pH 7.4), and penicillin/streptomycin (Invitrogen). After one centrifugation, BM cells were resuspended in Tris-ammonium chloride for 2 min to lyse RBC. After one more centrifugation, BM cells (1×10^6 cells/ml) were cultured in medium supplemented with 100 ng/ml recombinant mouse FLT3 ligand (R&D systems) in 6-well plates (Costar Corning). After 7 days, the non-adherent and loosely adherent cells were harvested with Versene, washed and transferred in 12-well plates (1.5×10^6 cells/plate) for cocultures with tumour cells.
In 12-well plates, […] adherent CT26 cells were labelled with Celltracker Green (Calbiochem) and then incubated with drugs. In some experiments viable CT26 were coated with 2 μg/10^6 cells of chicken anti-CRT antibody (ABR affinity bioreagents) or an isotype control for 30 min prior to washing and feeding to dendritic cells Cs. Alternatively CT26 cells were coated with 2 μg/10^6 cells of rCRT on ice for 30 min and washed twice prior to addition to dendritic cells. Cells were then harvested, washed three times with medium supplemented with FBS and cocultured with immature DC for 2 hours at a ratio of 1:1 and 1:5. At the end of the incubation, cells were harvested with versene, pooled with non-adherent cells present in the supernatant, washed and stained with CD11c-FITC antibody. Phagocytosis was assessed by FACS analysis of double positive cells. Phagocytic indexes refer to the ratio between values obtained at 4° C. and values obtained at 37° C. of co-incubation between DC and tumour cells.

cell surface CRT = assay: CRT exposure on enucleated CT26 cells (cytoplasts); assay type: cell-based, murine
Description: FIG. 5A: CRT exposure after anthracyclin treatment in the absence of a nucleus. Intact cells or enucleated cells (cytoplasts) were treated for 2 hours with mitoxantrone, followed by immunofluorescence detection of CRT exposure. Inserts show the effective removal of Hoechst 33342-stainable nuclei from the cytoplasts.
Trypsinized CT26 cells were enucleated as described in the publication of Andreau, K. et al. Contagious apoptosis facilitated by the HIV-1 envelope. Fusion-induced cell-to-cell transmission of a lethal signal. J. Cell Sci. 117, 5643-53 (2004). Briefly, cells were treated in 2 ml of complete RPMI medium containing cytochalasin B (10 μg/ml; Sigma) and DNase I (80 U/ml; Sigma). Cell suspension was adjusted to a final concentration of 5×10^6/ml and incubated at 37° C. for 45 minutes before being layered onto a previously prepared discontinuous Ficoll (Pharmacia) density gradient (3 ml of 100%, in 1 ml of 90% and 3 ml of 55% Ficoll Paque layer containing 5 μg/ml cytochalasin B and 40 U/ml DNase I; gradients were prepared in ultracentrifuge tubes and pre-equilibrated at 37° C. in a CO2 incubator overnight). […] Then the cell surface CRT was detected (see materials and methods) and the viability was determined by with propidium iodine staining (2 μg/ml, Sigma) for 5 min followed by cytofluorometric analysis. […] Phagocytosis was assessed by FACS analysis of double positive cells.

CRT [2] = assay: CRT exposure on tumour cell lines of murine origin (MCA205, B16F10, J558); assay type: cell-based
CRT [3] = assay: CRT exposure on tumour cell lines of human origin (HeLa, A549, HCT116); assay type: cell-based
CT26 tumours [4] = assay: Intratumoural treatment of established CT26 tumours in immunocompetent mice; assay type: in vivo, BALB/c mice (wild type); conditions: for therapeutic effect of single agent on established tumours, immunocompetent mice: single intratumoural injection, 14-day-old CT26 tumours
CT26 tumours [5] = assay: Intratumoural treatment of established CT26 tumours in immunodeficient mice; assay type: in vivo, athymic nu/nu Balb/c mice; conditions: for therapeutic effect of single agent on established tumours, nu/nu mice: single intratumoural injection
CRT [6] = assay: Biotinylation of cell surface proteins, 2D gel electrophoresis and mass spectrometry; assay type: cell-based, murine; conditions: CT26 cells, short-term (4 h) treatment, versus untreated
ERP57 = assay: Biotinylation of cell surface proteins, 2D gel electrophoresis and mass spectrometry (ERP57 spot); assay type: cell-based, murine; conditions: CT26 cells, short-term (4 h) treatment
calreticulin [7] = assay: Calreticulin exposure by immunofluorescence staining and flow cytometry, HCT116 cells; assay type: cell-based, human; conditions: 2 hours
Description: (§1) HCT116 cells (FIG. 7A) or CT26 cells (FIG. 7B) were cultured in complete mediums supplemented with 10% fetal calf serum alone or in the presence of the control peptide (VKKKKIKREIKI-lkaravafsekv) (SEQ ID NO: 17) or the PP1/GADD34 inhibitory peptide (VKKKKIKREIKI-lkarkvrfsekv, SEQ ID NO: 4. denominated PP1 peptide) for 2 hours. Cells were washed twice with PBS and fixed in PFA (4% w/v) for 5 min. Cells were stained with an antibody against calreticulin (pAb from Abeam, ab2907) at 1:200 dilution or isotype control, in staining buffer (PBS, 1% FCS) for 30 min on ice, followed by washing. An anti-rabbit Alexa fluor 488 immunoglobulin conjugate (Molecular Probes-Invitrogen) diluted at 1:500 was added for an additional 30 min on ice before washing and analysed by flow cytometry (FACScan, Becton Dickinson). Propidium Iodide (50 μg/ml, Becton Dickinson) was added to the samples to label and exclude permeabilized (dead) cells.

calreticulin [8] = assay: Calreticulin exposure by immunofluorescence staining and flow cytometry, CT26 cells (peptide test); assay type: cell-based, murine; conditions: 2 hours
Description: as §1

CT26 colon cancer = assay: Intratumoural peptides with systemic mitomycin C against established CT26 colon cancer (tumor size, survival); assay type: in vivo, BALB/c mice; conditions: 10 micrograms peptide in situ plus systemic mitomycin C
Description: CT26 cells were injected se in BALB/c mice. At a size of 20 mm^2, the palpable tumors were directly inoculated in situ with 10 micrograms of either of the three following peptides (see below) alone or together with a systemic treatment with mitomycin C (as described in Obeid et al. Nat Med 2007) or PBS. • 1. Cell-penetrable PP1 inhibitory peptide VKKKKIKREIKI-LKARKVRFSEKV (SEQ ID NO: 4) • 2. Cell-penetrable control peptide VKKKKIKREIKI-LKARAVRFSEKV (SEQ ID NO: 18) • 3. Cell penetration sequence VKKKKIKREIKI (SEQ ID NO: 3) alone admixed together with PP1-inhibitory peptide LKARKVRFSEKV (SEQ ID NO: 2) alone.
5 animals/group were included in this experiment.

DC = DC maturation ex vivo; assay type: cell-based; conditions: alone, over a large range of concentrations
CT26 colon cancer cells = assay: In vivo anti-cancer vaccination: treated tumour cells in one flank and live tumour cells in opposite flank simultaneously; set-up: species or system BALB/c mice
Description: FIG. 4A: In vivo anti-cancer vaccination depends on CRT. CT26 colon cancer cells were transfected with the indicated siRNAs, then treated with rCRT and/or mitoxantrone (as in FIG. 3D) and the anti-tumour response was measured by simultaneously challenging BALB/c mice with mitoxantrone treated tumour cells in one flank and untreated live tumour cells in the opposite flank.
FIG. 4D: CRT-mediated amelioration of the immune response against etoposide-treated tumour cells. CT26 cells were treated for 24 h with etoposide (or PBS) and rCRT was optionally absorbed to the cell surface (inserts), followed by simultaneous injection of the etoposide ±rCRT-treated tumour cells and live tumour cells in opposite flanks and monitoring of tumour growth.
(§2) Tumours were evaluated weekly, using a caliper.

CT26 tumour cells [9] = assay: Local immune response: tumour cells injected into foot pad, IFN-γ secretion by draining popliteal lymph node cells (ELISA); assay type: in vivo, Balb/c mice
Description: FIG. 4B: Priming of T cell responses depending on CRT. CT26 tumour cells were left untransfected or transfected with the indicated siRNAs, then treated with medium alone, mitomycin C or mitoxantrone and injected into the right food pad of Balb/c mice. Five days later, mononuclear cells from the draining popliteal lymph nodes were challenged with freeze-thawed CT26 cells, and IFN-γ secretion was assessed at 72 hrs.
FIG. 4C: Exogenous supply of CRT enhances the immunogenicity of CRT-negative dying cells. CT26 cells lacking CRT expression after depletion of CRT with a siRNA and mitoxantrone treatment or after mitomycin treatment were coated with rCRT (inserts) and then injected in the food pad, followed by assessment of the IFN-γ secretion by cells from the draining lymph nodes as in FIG. 4B.
as §2

[10] = intratumoural injection with etoposide or mitomycin C

O=C1c2c(O)ccc(O)c2C(=O)c2c(NCCNCCO)ccc(NCCNCCO)c21 [mitoxantrone]
immunogenicity of cell death (protection against tumour growth, anti-tumour vaccination) (CT26 tumour cells [1]): elicited immunogenic cell death | phagocytosis of drug-treated tumour cells by DC (CT26 cells): acquired the property to be phagocytosed by DC quickly | time to CRT exposure in cytoplasts (cell surface CRT): ≤ 1 h | CRT exposure on murine tumour cell lines (CRT [2]): induced CRT exposure | CRT exposure on human tumour cell lines (CRT [3]): induced CRT exposure | therapeutic effect of single agent on established tumours, immunocompetent mice (CT26 tumours [4]): able to cause their permanent regression in some but not all cases | therapeutic effect of single agent on established tumours, nu/nu mice (CT26 tumours [5]): no cure

COc1cccc2c1C(=O)c1c(O)c3c(c(O)c1C2=O)C[C@@](O)(C(=O)CO)C[C@@H]3O[C@H]1C[C@H](N)[C@H](O)[C@H](C)O1 [doxorubicin]
immunogenicity of cell death (protection against tumour growth, anti-tumour vaccination) (CT26 tumour cells [1]): elicited immunogenic cell death | induction of surface CRT (factor) (CRT [6]): 6 | surface exposure of ERP57 (ERP57): specifically induced | phagocytosis of drug-treated tumour cells by DC (CT26 cells): acquired the property to be phagocytosed by DC quickly

VKKKKIKREIKI-LKARKVRFSEKV (VKKKKIKREIKILKARKVRFSEKV; Artificial sequence including a fragment of GADD34 and a translocation motif.) [SEQ ID NO:4, fragment of GADD34 fused to a plasma membrane translocation motif]
exposure of calreticulin, HCT116 cells (calreticulin [7]): capable of inducing the exposure of calreticulin | exposure of calreticulin, CT26 cells (calreticulin [8]): capable of inducing the exposure of calreticulin | therapeutic effect of combination with mitomycin C (CT26 colon cancer): synergistic therapeutic effects

B1: rCRT: recombinant CRT protein, which binds to the surface of the cells (protein, UniProt P27797 18-417, looked up)
Calreticulin: EPAVYFKEQFLDGDGWTSRWIESKHKSDFGKFVLSSGKFYGDEEKDKGLQTSQDARFYALSASFEPFSNKGQTLVVQFTVKHEQNIDCGGGYVKLFPNSLDQTDMHGDSEYNIMFGPDICGPGTKKVHVIFNYKGKNVLINKDIRCKDDEFTHLYTLIVRPDNTYEVKIDNSQVESGSLEDDWDFLPPKKIKDPDASKPEDWDERAKIDDPTDSKPEDWDKPEHIPDPDAKKPEDWDEEMDGEWEPPVIQNPEYKGEWKPRQIDNPDYKGTWIHPEIDNPEYSPDPSIYAYDNFGVLGLDLWQVKSGTIFDNFLITNDEAYAEEFGNETWGVTKAAEKQMKDKQDEEQRLKEEEEDKKRKEEEEAEDKEDDEDKDEDEEDEEDKEEDEEEDVPGQAKDEL
restoration of phagocytosis by DC in CRT-siRNA cells (CT26 cells; rCRT added to cell surface of CRT-siRNA transfected cells): could reverse the defect induced by the CRT-specific siRNA | DC maturation (DC): could not promote DC maturation ex vivo | immunogenicity of mitoxantrone-treated CT26 cells (efficacy of anti-tumour vaccination) (CT26 colon cancer cells; cells injected into the flank of Balb/c mice): this defect was restored | anti-tumour immune response to etoposide-treated cells coated with rCRT (CT26 colon cancer cells; etoposide-treated cells coated with rCRT): elicited a vigorous anti-tumour immune response in vivo | anti-cancer immune response to rCRT-coated live cells (CT26 colon cancer cells; rCRT absorbed to cell surface without prior treatment with cell death inducers): failed to elicit an anti-cancer immune response | immunogenicity of mitoxantrone-treated CT26 cells (interferon-γ production by T cells from popliteal lymph node) (CT26 tumour cells [9]; cells injected into the foot pad): this defect was restored | immunogenicity of mitomycin-treated cells coated with rCRT (IFN-γ) (CT26 tumour cells [9]; rCRT absorbed to plasma membrane of mitomycin-treated cells): greatly enhanced the immunogenicity of cells that usually fail to induce an immune response | effect of rCRT injected into a distant site (CT26 tumours [4]; contralateral subcutaneous rCRT plus intratumoural etoposide): did not ameliorate the antitumoural effects of intratumorally injected etoposide | therapeutic effect combined with a cell death inducer (etoposide or mitomycin C), immunocompetent mice (CT26 tumours [4]; [10]): able to cause tumour regression | therapeutic effect of single agent on established tumours, immunocompetent mice (CT26 tumours [4]): no major therapeutic effect | therapeutic effect combined with a cell death inducer (etoposide or mitomycin C), immunodeficient mice (CT26 tumours [5]; [10]): not in immunodeficient | therapeutic effect of single agent on established tumours, nu/nu mice (CT26 tumours [5]): no major therapeutic effect
